IC50 data for 50 molecules are collected here from US20260001871A1, “TRIAZOLE DERIVATIVES AS MODULATORS OF MAS-RELATED G-PROTEIN RECEPTOR D” (ESCIENT PHARMACEUTICALS, INC., priority 2022, published 2026).

Molecules are shown by their SMILES.

By IC50 is commonly meant the midpoint of a concentration-inhibition curve. The low end stands for inhibition by little substance, the high end for a need for much substance.

For the experiment, the target named is human MRGPRD (Homo sapiens, UniProt Q8TDS7). Nature of the experiment: MRGPRD antagonist activity, IP-One HTRF assay in CHO cells stably expressing human MRGPRD (versus 100 μM β-Alanine agonist). It counts as cell-based. An outline of the steps: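 IP-1 HTRF read-out, with IC50 from HTRF ratio curves and percent antagonism relative to maximal efficacy (mean, SEM). Antagonists and agonist were co-incubated 1 h at 37 °C plus 1 h at room temperature on overnight-plated MRGPRD-CHO cells in LiCl-containing Tris buffer, pH 8.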
human MRGPRD, sequence (Q8TDS7 whole entry): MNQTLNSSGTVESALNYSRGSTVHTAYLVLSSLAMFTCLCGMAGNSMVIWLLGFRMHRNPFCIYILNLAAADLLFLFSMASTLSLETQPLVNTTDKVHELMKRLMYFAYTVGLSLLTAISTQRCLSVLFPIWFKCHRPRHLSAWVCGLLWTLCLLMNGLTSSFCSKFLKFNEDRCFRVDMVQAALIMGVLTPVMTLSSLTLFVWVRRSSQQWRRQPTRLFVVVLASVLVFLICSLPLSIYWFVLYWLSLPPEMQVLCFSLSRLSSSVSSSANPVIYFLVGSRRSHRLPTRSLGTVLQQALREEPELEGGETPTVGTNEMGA
The molecule `O=C(Nc1ccncc1)c1nnn(-c2cccc(-c3cnn(CC(F)(F)F)c3)c2)c1C1CC1` [Compound 7-248] returned an IC50 of 500 to 1000 nM. With `CC(=O)c1ccc(-c2cccc(-n3nnc(C(=O)Nc4ccncc4)c3C3CC3)c2)cc1C` [Compound 7-249] the figure was 500 to 1000 nM; with `Cc1nn(C)c(C)c1-c1ccc(-n2nnc(C(=O)Nc3ccncc3)c2C2CC2)cc1C#N` [Compound 7-250], 500 to 1000 nM. As for `CC(C)n1cc(-c2cccc(-n3nnc(C(=O)Nc4ccncc4)c3C3CC3)c2)cn1` [Compound 7-251], the IC50 lay within 500 to 1000 nM. With `CC(=O)c1ccc(-c2cccc(-n3nnc(C(=O)Nc4ccncc4)c3C3CC3)c2)c(F)c1C` [Compound 7-252] the figure was 500 to 1000 nM; with `Cc1cc(NC(=O)c2nnn(-c3cccc(-c4ccn(C)n4)c3)c2C2CC2)ccn1` [Compound 7-253], 500 to 1000 nM. In turn, `Cc1nn(-c2ccccc2)c(C)c1-c1cccc(-n2nnc(C(=O)Nc3ccncc3)c2C2CC2)c1` [Compound 7-255] had an IC50 of 500 to 1000 nM. As for `O=C(Nc1ccncc1)c1nnn(-c2cccc(-c3cnn(-c4ccccc4)c3)c2)c1C1CC1` [Compound 7-256], the IC50 lay within 500 to 1000 nM.

Regarding `Cc1cc(-c2ccccc2)ccc1-n1nnc(C(=O)Nc2ccncc2)c1C1CC1` [Compound 7-257], the IC50 was in the range of 500 to 1000 nM. Consider `COc1ccc(-c2cccc(-n3nnc(C(=O)Nc4ccncc4)c3C3CC3)c2)cc1C` [Compound 7-258], for which the IC50 was in the range of 500 to 1000 nM.

Molecule `CC(=O)c1cccc(-c2cc(-n3nnc(C(=O)Nc4ccncc4)c3C3CC3)ccc2C)c1` [Compound 7-259] yielded an IC50 of 500 to 1000 nM. With `Cc1ccc(-n2nnc(C(=O)Nc3ccncc3)c2C2CC2)cc1-c1cnn(C(C)C)c1` [Compound 7-260] the figure was 500 to 1000 nM; with `COc1ccccc1-c1ccc(-n2nnc(C(=O)Nc3ccncc3)c2C2CC2)cc1C` [Compound 7-261], 500 to 1000 nM; with `CCn1ccc(-c2cccc(-n3nnc(C(=O)Nc4ccnc(C)c4)c3C3CC3)c2)n1` [Compound 7-262], 500 to 1000 nM. In turn, `CC(=O)c1ccc(-c2cccc(-n3nnc(C(=O)Nc4ccncc4)c3C3CC3)c2)c(C)c1` [Compound 7-263] returned an IC50 of 500 to 1000 nM. `N#Cc1ccc(-c2cccc(-n3nnc(C(=O)Nc4ccncc4)c3C3CC3)c2)cc1` [Compound 7-264] showed an IC50 of 500 to 1000 nM. As to `CC(=O)c1ccc(-c2cccc(-n3nnc(C(=O)Nc4ccncc4)c3C3CC3)c2)s1` [Compound 7-265], the IC50 lay in the range of 500 to 1000 nM. Molecule `O=C(Nc1ccncc1)c1nnn(-c2cccc(-c3cnn(C4CCCC4)c3)c2)c1C1CC1` [Compound 7-266] yielded an IC50 of 500 to 1000 nM.

For `Cc1nn(C)c(C)c1-c1ccc(-n2nnc(C(=O)Nc3ccncc3)c2C2CC2)c(C#N)c1` [Compound 7-267], the IC50 is 500 to 1000 nM.

`COc1ccc(-c2cccc(-n3nnc(C(=O)Nc4ccncc4)c3C3CC3)c2)cc1` [Compound 7-268] registered an IC50 of 500 to 1000 nM. Molecule `N#CCc1cccc(-c2cccc(-n3nnc(C(=O)Nc4ccncc4)c3C3CC3)c2)c1` [Compound 7-269] gave an IC50 of 500 to 1000 nM. With `O=C(Nc1ccncc1)c1nnn(-c2cccc(-c3cnn(Cc4ccccc4)c3)c2)c1C1CC1` [Compound 7-270] the figure was 500 to 1000 nM; with `Cc1cc(-n2nnc(C(=O)Nc3ccncc3)c2C2CC2)ccc1-c1c(C)nn(C)c1C` [Compound 7-271], 500 to 1000 nM. The figure for `COc1cc(-c2ccccc2)ccc1-n1nnc(C(=O)Nc2ccnc(C)c2)c1C1CC1` [Compound 7-272] is 500 to 1000 nM; for `N#CCc1ccc(-c2cccc(-n3nnc(C(=O)Nc4ccncc4)c3C3CC3)c2)cc1` [Compound 7-273] it is 500 to 1000 nM. `CC(=O)c1ccc(-c2cccc(-n3nnc(C(=O)Nc4ccncc4)c3C3CC3)c2)cc1` [Compound 7-274] registered an IC50 of 500 to 1000 nM. The molecule `COc1cc(-n2nnc(C(=O)Nc3ccncc3)c2C2CC2)ccc1-c1c(C)nn(C)c1C` [Compound 7-275] showed a concentration for half-maximal inhibition (IC50) of 500 to 1000 nM.

Take `O=C(Nc1ccncc1)c1nnn(-c2cccc(-c3ccccc3O)c2)c1C1CC1` [Compound 7-276]: the IC50 is 500 to 1000 nM. Turning to `O=C(Nc1ccncc1)c1nnn(-c2cccc(-c3ccc(O)cc3)c2)c1C1CC1` [Compound 7-277], the concentration for half-maximal inhibition (IC50) is 500 to 1000 nM. Molecule `Cc1ccc(CNC(=O)c2nnn(-c3cccc(-c4ccn(C5CCC5)n4)c3)c2C2CC2)cn1` [Compound 7-278] came in with an IC50 of 500 to 1000 nM. As to `Cc1cc(NC(=O)c2nnn(-c3ccc(-c4ccccc4)cn3)c2C2CC2)ccn1` [Compound 7-279], the IC50 lay within 500 to 1000 nM. As to `CC(=O)c1ccc(-c2cccc(-n3nnc(C(=O)Nc4ccncc4)c3C3CC3)c2)cc1F` [Compound 7-280], the IC50 lay in the range of 500 to 1000 nM. Molecule `Cc1nn(-c2ccccc2)cc1-c1cccc(-n2nnc(C(=O)Nc3ccncc3)c2C2CC2)c1` [Compound 7-281] displayed an IC50 of 500 to 1000 nM. Take `Cc1cc(NC(=O)c2nnn(-c3cccc(-c4ccn(-c5ccccc5)n4)c3)c2C2CC2)ccn1` [Compound 7-282]: the IC50 was 500 to 1000 nM. For `O=C(Nc1ccncc1)c1nnn(-c2cccc(-c3cnn4c3CCC4)c2)c1C1CC1` [Compound 7-283], the IC50 lay in the range of 500 to 1000 nM. The figure for `CCc1ccc(-c2cccc(-n3nnc(C(=O)Nc4ccncc4)c3C3CC3)c2)cc1` [Compound 7-284] is 500 to 1000 nM; for `O=C(Nc1ccncc1)c1nnn(-c2cccc(-c3ccccc3C(F)(F)F)c2)c1C1CC1` [Compound 7-285] it is 1000 to 3000 nM.

As to `COc1ccc(-c2cccc(-n3nnc(C(=O)Nc4ccncc4)c3C3CC3)c2)c(OC)c1` [Compound 7-286], the IC50 was in the range of 1000 to 3000 nM.

`COc1ccc(-c2cccc(-n3nnc(C(=O)Nc4ccncc4)c3C3CC3)c2)c(C)c1` [Compound 7-287] had an IC50 of 1000 to 3000 nM. `CC(C)(C)n1cc(-c2cccc(-n3nnc(C(=O)Nc4ccncc4)c3C3CC3)c2)cn1` [Compound 7-288] gave an IC50 of 1000 to 3000 nM.

The molecule `CC(C)n1cc(-c2cc(-n3nnc(C(=O)Nc4ccncc4)c3C3CC3)ccc2F)cn1` [Compound 7-289] displayed an IC50 of 1000 to 3000 nM. With `Cc1nn(C2CCC2)c(C)c1-c1cccc(-n2nnc(C(=O)Nc3ccncc3)c2C2CC2)c1` [Compound 7-290] the figure was 1000 to 3000 nM; with `Cc1cc(NC(=O)c2nnn(-c3cccc(-c4c(C)nn(C)c4C)c3)c2C2CC2)ccn1` [Compound 7-291], 1000 to 3000 nM. For the molecule `COc1cccc(-c2cccc(-n3nnc(C(=O)Nc4ccncc4)c3C3CC3)c2)c1` [Compound 7-292], the IC50 lay within 1000 to 3000 nM. With `N#Cc1cccc(-c2cccc(-n3nnc(C(=O)Nc4ccncc4)c3C3CC3)c2)c1` [Compound 7-293] the figure was 1000 to 3000 nM. In turn, `O=C(Nc1ccncc1)c1nnn(-c2cccc(-c3cccc(C(F)(F)F)c3)c2)c1C1CC1` [Compound 7-294] yielded an IC50 of 1000 to 3000 nM. With `O=C(Nc1ccncc1)c1nnn(-c2cccc(-c3ccn[nH]3)c2)c1C1CC1` [Compound 7-295] the figure was 1000 to 3000 nM; with `O=C(Nc1ccncc1)c1nnn(-c2cccc(-c3ccc[nH]3)c2)c1C1CC1` [Compound 7-296], 1000 to 3000 nM. `CC(=O)c1ccc(-c2cccc(-n3nnc(C(=O)NCc4ccc(C)nc4)c3C3CC3)c2)c(F)c1` [Compound 7-297] returned an IC50 of 1000 to 3000 nM. In turn, `O=C(Nc1ccncc1)c1nnn(-c2cccc(-c3ccccc3F)c2)c1C1CC1` [Compound 7-298] returned an IC50 of 1000 to 3000 nM.
